Measured values: ChEMBL document CHEMBL2380215, “Development of cyclic peptomer inhibitors targeting the polo-box domain of polo-like kinase 1” (Bioorg Med Chem, 2013)
Calls of active or inactive are those of the source. The rule behind the calls is not given here.

Legend:
[1] = molecular target: Serine/threonine-protein kinase PLK3 (Homo sapiens) (UniProt Q9H4B4); assay: Inhibition of Plk3 polo-box domain (unknown origin) assessed as inhibition of 5-carboxyfluorescein-Ahx-GPLATS-pT-PKNG binding after 10 mins by fluorescence polarization assay
[2] = molecular target: Serine/threonine-protein kinase PLK2 (Homo sapiens) (UniProt Q9NYY3); assay: Inhibition of Plk2 polo-box domain (unknown origin) assessed as inhibition of 5-carboxyfluorescein-Ahx-GPMQTS-pT-PKNG binding after 10 mins by fluorescence polarization assay
[3] = molecular target: Serine/threonine-protein kinase PLK1 (Homo sapiens) (UniProt P53350); assay: Inhibition of HA-EGFP tagged Plk1 polo-box domain (unknown origin) expressed in 293A cells assessed as inhibition of biotin-p-T78 binding up to 150 uM after 1 hr by ELISA; assay type: cell-based
Chain of Serine/threonine-protein kinase PLK1 (Homo sapiens) (P53350 whole entry, the tested form may be a part): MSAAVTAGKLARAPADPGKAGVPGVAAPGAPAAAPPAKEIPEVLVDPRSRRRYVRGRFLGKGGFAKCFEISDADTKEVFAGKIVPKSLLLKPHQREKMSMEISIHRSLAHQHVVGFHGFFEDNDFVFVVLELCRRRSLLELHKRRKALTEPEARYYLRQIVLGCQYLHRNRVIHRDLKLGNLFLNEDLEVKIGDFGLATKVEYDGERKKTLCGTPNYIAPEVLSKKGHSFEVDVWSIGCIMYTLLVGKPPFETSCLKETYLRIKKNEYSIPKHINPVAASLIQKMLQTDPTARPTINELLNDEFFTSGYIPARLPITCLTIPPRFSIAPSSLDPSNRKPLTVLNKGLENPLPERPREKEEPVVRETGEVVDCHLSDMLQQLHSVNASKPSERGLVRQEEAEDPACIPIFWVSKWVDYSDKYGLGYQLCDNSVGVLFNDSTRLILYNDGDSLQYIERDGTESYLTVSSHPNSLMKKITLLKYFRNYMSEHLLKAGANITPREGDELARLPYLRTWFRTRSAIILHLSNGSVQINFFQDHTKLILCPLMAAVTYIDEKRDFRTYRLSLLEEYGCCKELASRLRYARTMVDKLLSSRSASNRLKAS

Chain of Serine/threonine-protein kinase PLK3 (Homo sapiens) (Q9H4B4 whole entry, looked up, the tested form may be a part): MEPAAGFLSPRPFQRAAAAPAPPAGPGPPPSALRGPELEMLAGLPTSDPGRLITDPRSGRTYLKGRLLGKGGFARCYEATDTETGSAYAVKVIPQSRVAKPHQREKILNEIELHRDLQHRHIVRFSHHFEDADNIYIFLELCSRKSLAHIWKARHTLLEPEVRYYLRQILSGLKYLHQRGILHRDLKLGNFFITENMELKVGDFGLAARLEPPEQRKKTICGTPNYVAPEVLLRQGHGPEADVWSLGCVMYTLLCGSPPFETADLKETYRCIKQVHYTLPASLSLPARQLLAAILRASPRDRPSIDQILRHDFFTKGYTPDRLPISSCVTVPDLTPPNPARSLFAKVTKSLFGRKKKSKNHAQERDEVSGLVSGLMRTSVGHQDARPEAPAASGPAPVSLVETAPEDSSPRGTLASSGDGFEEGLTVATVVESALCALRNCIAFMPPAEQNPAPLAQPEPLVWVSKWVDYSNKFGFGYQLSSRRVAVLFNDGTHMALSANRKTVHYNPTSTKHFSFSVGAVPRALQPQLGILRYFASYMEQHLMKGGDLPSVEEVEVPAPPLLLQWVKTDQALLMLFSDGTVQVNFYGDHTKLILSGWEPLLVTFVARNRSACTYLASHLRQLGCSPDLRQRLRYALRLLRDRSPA
Chain of Serine/threonine-protein kinase PLK2 (Homo sapiens) (Q9NYY3 whole entry, looked up, the tested form may be a part): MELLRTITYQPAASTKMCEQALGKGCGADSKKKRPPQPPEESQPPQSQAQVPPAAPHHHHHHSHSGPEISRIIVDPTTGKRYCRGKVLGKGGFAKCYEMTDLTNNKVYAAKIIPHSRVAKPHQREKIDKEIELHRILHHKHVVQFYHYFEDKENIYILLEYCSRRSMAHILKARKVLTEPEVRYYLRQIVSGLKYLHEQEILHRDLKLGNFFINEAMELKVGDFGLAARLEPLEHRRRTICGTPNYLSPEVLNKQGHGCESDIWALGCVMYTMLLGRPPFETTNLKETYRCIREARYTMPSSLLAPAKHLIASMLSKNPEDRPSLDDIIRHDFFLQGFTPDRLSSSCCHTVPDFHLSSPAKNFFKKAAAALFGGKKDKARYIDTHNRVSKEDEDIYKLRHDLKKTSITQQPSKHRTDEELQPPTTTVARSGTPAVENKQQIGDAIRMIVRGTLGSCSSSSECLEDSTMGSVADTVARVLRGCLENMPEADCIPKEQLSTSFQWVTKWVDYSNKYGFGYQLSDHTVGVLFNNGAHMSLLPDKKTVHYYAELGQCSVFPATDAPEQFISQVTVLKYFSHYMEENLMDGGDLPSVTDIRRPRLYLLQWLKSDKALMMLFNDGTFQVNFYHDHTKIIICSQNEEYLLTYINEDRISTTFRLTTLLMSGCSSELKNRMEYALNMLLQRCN

SMILES: CC(=O)n1cc(CCNC(=O)CCCCCN2CC(=O)N[C@@H](CC(C)C)C(=O)N[C@@H](Cc3cncn3CCCCCCCCc3ccccc3)C(=O)N[C@@H](CO)C(=O)N[C@@H]([C@@H](C)OP(=O)(O)O)C(=O)N[C@@H](C(N)=O)CSCC2=O)c2ccccc21
- inhibition [1]: inactive
- inhibition [2]: inactive

SMILES: CC(=O)n1cc(CCNC(=O)CCCCCN2CC(=O)N[C@@H](CC(C)C)C(=O)N[C@@H](Cc3c[nH]cn3)C(=O)N[C@@H](CO)C(=O)N[C@@H]([C@@H](C)OP(=O)(O)O)C(=O)N[C@@H](C(N)=O)CSCC2=O)c2ccccc21
- inhibition [1]: inactive
- inhibition [2]: inactive

SMILES: CC(=O)n1cc(CCNC(=O)CCCCN2CC(=O)N[C@@H](CC(C)C)C(=O)N[C@@H](Cc3c[nH]cn3)C(=O)N[C@@H](CO)C(=O)N[C@@H]([C@@H](C)OP(=O)(O)O)C(=O)N[C@@H](C(N)=O)CSCC2=O)c2ccccc21
- inhibition [3]: Active

SMILES: CC(=O)n1cc(CCNC(=O)CCN2CC(=O)N[C@@H](CC(C)C)C(=O)N[C@@H](Cc3c[nH]cn3)C(=O)N[C@@H](CO)C(=O)N[C@@H]([C@@H](C)OP(=O)(O)O)C(=O)N[C@@H](C(N)=O)CSCC2=O)c2ccccc21
- inhibition [3]: Active
